ChEMBL document CHEMBL3593185, “Synthesis of new fluorinated analogs of GABA, Pregabalin bioisosteres, and their effects on [(3)H]GABA uptake by rat brain nerve terminals” (Bioorg Med Chem, 2015)
Activity calls are given as the source filed them. The rule behind the calls is not given here.

Assays:
Assay type in all cases: functional, subcellular
Rattus norvegicus [1] = species: Rattus norvegicus; assay: Increase in [3H]GABA uptake initial velocity in Wistar rat synaptosomes measured per mg of protein pretreated at 100 uM for 20 mins with combined application of 30 uM NO-711 GAT1 blocker by scintillation counting
Rattus norvegicus [2] = species: Rattus norvegicus; assay: Increase in [3H]GABA uptake initial velocity in Wistar rat synaptosomes measured per mg of protein pretreated at 100 uM for 20 mins with combined application of 50 uM SNAP5114 GAT3 blocker by scintillation counting
Rattus norvegicus [3] = species: Rattus norvegicus; assay: Increase in [3H]GABA uptake initial velocity in Wistar rat synaptosomes measured per mg of protein at 100 uM by scintillation counting (reference value: 205.4 +/- 5 pmol/min*mg of protein)
Rattus norvegicus [4] = species: Rattus norvegicus; assay: Increase in [3H]GABA uptake initial velocity in Wistar rat synaptosomes measured per mg of protein pretreated at 200 uM for 20 mins by scintillation counting
Rattus norvegicus [5] = species: Rattus norvegicus; assay: Increase in [3H]GABA uptake initial velocity in Wistar rat synaptosomes measured per mg of protein pretreated at 100 uM for 20 mins by scintillation counting (reference value: 153 +/- 7.7 pmol/min*mg of protein)
Rattus norvegicus [6] = species: Rattus norvegicus; assay: Increase in [3H]GABA uptake initial velocity in Wistar rat synaptosomes measured per mg of protein at 200 uM by scintillation counting

Work on NCC(CC(=O)O)C(F)(F)C(F)F (racemic) yielded an Activity (Rattus norvegicus [1]) of 27.4 pmol/min/mg, an Activity (Rattus norvegicus [2]) of 125 pmol/min/mg and an Activity (Rattus norvegicus [3]) of 198 pmol/min/mg. The Activity (Rattus norvegicus [4]) was “Active”, the Activity (Rattus norvegicus [5]) was 188 pmol/min/mg and the Activity (Rattus norvegicus [6]) was “inactive”.
NC[C@@](O)(CC(=O)O)C(F)(F)F gave an Activity (Rattus norvegicus [1]) of 27.9 pmol/min/mg, an Activity (Rattus norvegicus [2]) of 128 pmol/min/mg and an Activity (Rattus norvegicus [3]) of 194 pmol/min/mg. For the same compound, the Activity (Rattus norvegicus [4]) was “Active”, the Activity (Rattus norvegicus [5]) was 189 pmol/min/mg and the Activity (Rattus norvegicus [6]) was “inactive”.
CC(C)C[C@H](CN)CC(=O)O was tested, and the Activity (Rattus norvegicus [1]) was “inactive”, the Activity (Rattus norvegicus [3]) was 211 pmol/min/mg and the Activity (Rattus norvegicus [5]) was 182 pmol/min/mg.
In the case of NC[C@@H](CC(=O)O)C(F)(F)F, the Activity (Rattus norvegicus [1]) is reported as 23.7 pmol/min/mg, the Activity (Rattus norvegicus [2]) is reported as 120 pmol/min/mg and the Activity (Rattus norvegicus [3]) is reported as 211 pmol/min/mg. For the same compound, the Activity (Rattus norvegicus [4]) was “Active”, the Activity (Rattus norvegicus [5]) was 179 pmol/min/mg and the Activity (Rattus norvegicus [6]) was “inactive”.
